Test system: murine B10R macrophages
Experiment: Chemokine mRNA expression (RNase protection)
Assay type: cell-based
Description: FIG. 9: Effect of bpV(phen) on chemokine mRNA expression in murine B10R macrophages. (A) Cells were incubated for 2 h with or without various concentrations of bpV(phen) (1-50 μM). Total RNA was isolated and analyzed by RNase protection. (B) Kinetic expression of chemokine genes in murine BIOR macrophages. Cells were incubated for increasing period of time (1-4 h) with or without bpV(phen) at 10 μM. Following extraction of total RNA, RNase protection assay was performed. Free RNA probe is shown in the far left lane. The fold increase was calculated from the densitometry of the autoradiogam.
Various concentrations of bpv(phen) were added to B10R macrophages for4 h. mRNA expression was measured by RNase protection assays. RANTES, MIP-1a/β MIP-2, IP-10 and MCP-1 chemokine mRNA levels increased in response to bpv(phen) (FIG. 9A). MCP-1, MIP-2, MIP-1β and RANTES were induced by the addition of bpv(phen) in a dose-dependent manner whereas IP-10 and MIP-1a were expressed at markedly lower concentrations (10 μM).
To determine the kinetics of chemokine expression following pV compound treatment, B10R macrophages were incubated with 10 ?M bpV(phen) for increasing time intervals. Total RNA was extracted from macrophages at various time-points and subjected to RNase protection assay. […] Thus, conditions for the induction of chemokine expression in response to bpV(phen) seems to vary with the different chemokines.

Question: How did the “most effective dose for the induction of chemokine gene expression” value turn out when O.O.O.OO.OO.[K+].[OH-].[V].c1cnc2c(c1)ccc1cccnc12 [bpV(phen), potassium bisperoxo(1,10-phenanthroline)oxovanadate] was run?
Answer: Its value is 10 µM.

Question: What about the “expression of RANTES mRNA” value (10 μM bpV(phen)) of the same molecule?
Answer: The value was “increased in a time-dependent manner over 24 h”.

Question: What about the “time of maximum levels of MIP-1a, MIP-2, IP-10, and MCP-1 chemokines mRNA” value (10 μM bpV(phen)) of the same molecule?
Answer: The value was 4 h.

Question: What about the “time of optimal expression of MIP-1β mRNA” value (10 μM bpV(phen)) of the same molecule?
Answer: Its value is 8 h.

Question: What about the “RANTES, MIP-1a/β MIP-2, IP-10 and MCP-1 chemokine mRNA levels” value (various concentrations (1-50 μM)) of the same molecule?
Answer: Its value is “increased”.

From US20030055106A1, “Therapeutic uses of peroxometallic compounds” (priority 1999, published 2003)
